From US10696707B2, “Polyene macrolide derivative” (Shionogi & Co., Ltd., priority 2014, dated 2020)
In brackets after ≈: the same amount, converted by molar mass. Like-named read-outs stand apart in the source and are kept apart here.

Tests used:
Type in all cases: cell-based
C. albicans ATCC90028 = experiment: Antifungal activity test, MIC by broth microdilution (CLSI M27-A3); settings: C. albicans ATCC90028, broth microdilution, 35° C., 24-48 hours, 100% inhibition
Summary of the method: (§1)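 CLSI broth microdilution in RPMI 1640 with 2% glucose, 0.165 mol/L MOPS, pH 7.0; two-fold DMSO dilutions. MIC = lowest concentration giving 100% inhibition versus growth control.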

A. flavus ATCC204304 = experiment: Antifungal activity test, MIC by broth microdilution (CLSI M38-A2); settings: A. flavus ATCC204304, broth microdilution, 35° C., 24-48 hours, 100% inhibition
Summary of the method: as §1

A. fumigatus ATCC204305 = experiment: as above; settings: A. fumigatus ATCC204305, broth microdilution, 35° C., 24-48 hours, 100% inhibition
Summary of the method: as §1

[1] = system: red blood cells (5% RBC suspension); experiment: Test Example 2-2: in vitro hemolytic activity test (upper limit 200 μmol/L); settings: read-out: hemolysis IC50
Procedure: Nephrotoxic potentials of the compounds of the present invention whose X is —N(R^F)—CO—X^1 and X^1 is the group represented by formula (III) and T is —N(R^a5)— were investigated by in vitro hemolytic activity test under the condition that the upper limit was 200 μmol/L as the required concentration to 50% of hemolysis (IC50).
Defibrinated sterile blood was centrifuged at 700×g for 3 minutes and, and the supernatant was removed for 100% of red blood cells. After the cleaning with physiological saline, the washed blood cells was suspended in the medium (Earle's balanced salt sodium, bicarbonate, 0.1 g/L L-glutamine without phenol red), and was diluted by 5% (5% RBC suspension).
The washed blood was diluted by 5% in water for injection (solution of complete hemolysis), and was used as the indication of optical density for complete hemolysis.
The compounds of the present invention solution in DMSO (several and doubling dilutions starting from 10 mmol/L), DMSO as the negative control, and Amphotericin B as the positive control were used, and each 5 μL of these was added in to a well of V-form 96 well type microplate. Finally, the maximum concentration of the compounds of the present invention solution in DMSO was 200 μmol/L by adding 245 μL of the medium or 5% RBC suspension into the well.
Two hundred fifty μL of the solution of complete hemolysis was added into another well and the microplate was incubated at 37° C. in 5% of CO2 concentration for an hour.
After the incubation, each 100 μL of supernatants in wells was collected by centrifugation of the microplate at 300×g for 5 minutes and was located on a well of flat-form 96 well type microplate. An absorbance of each supernatant was measured at wavelength of 540 nm.
Percent hemolysis was calculated by using the followed equation. The required concentration to 50% of hemolysis (IC50) was calculated based on the percent hemolysis. […] Hemolysis (%)=(CR−VM)×100÷(VL−VR) Where:
CR: Absorbance of 5% RBC suspension incubated with the compounds of the present invention solution in DMSO
VM: Absorbance of medium incubated with the compounds of the present invention solution in DMSO
VL: Absorbance of solution of complete hemolysis
VR: Absorbance of 5% RBC suspension incubated with DMSO
The “>200” in the table means above IC50 value exceeded the upper concentration 200 μmol/L.

[2] = Candida albicans, read-out: MIC
[3] = Aspergillus flavus, read-out: MIC
[4] = Aspergillus fumigatus, read-out: MIC
[5] = Erythrocyte, 1 h, Test Example 2-2, hemolysis method 200 (upper concentration 200 μmol/L), 5% RBC suspension, 37° C., one hour
[6] = Test Example 2-2, hemolysis method 200 (upper concentration 200 μmol/L), 5% RBC suspension, 37° C., one hour

C[C@@H]1[C@H](O)[C@@H](C)/C=C/C=C/C=C/C=C/C=C/C=C/C=C/[C@H](O[C@@H]2O[C@H](C)[C@@H](O)[C@H](N)[C@@H]2O)C[C@@H]2O[C@](O)(C[C@@H](O)C[C@@H](O)[C@H](O)CC[C@@H](O)C[C@@H](O)CC(=O)O[C@H]1C)C[C@H](O)[C@H]2NC(=O)NNC(CO)CO [I-272]
MIC (C. albicans ATCC90028; [2]): 0.25 µg/mL (≈ 0.243 µM) | MIC (A. flavus ATCC204304; [3]): 0.5 µg/mL (≈ 0.487 µM) | MIC (A. fumigatus ATCC204305; [4]): 0.5 µg/mL (≈ 0.487 µM) | IC50 [1, 5]: > 200 µM

C[C@@H]1[C@H](O)[C@@H](C)/C=C/C=C/C=C/C=C/C=C/C=C/C=C/[C@H](O[C@@H]2O[C@H](C)[C@@H](O)[C@H](N)[C@@H]2O)C[C@@H]2O[C@](O)(C[C@@H](O)C[C@@H](O)[C@H](O)CC[C@@H](O)C[C@@H](O)CC(=O)O[C@H]1C)C[C@H](O)[C@H]2NC(=O)NNC=O [I-43]
MIC (C. albicans ATCC90028): 0.25 µg/mL (≈ 0.255 µM) | MIC (A. flavus ATCC204304): 1 µg/mL (≈ 1.02 µM) | MIC (A. fumigatus ATCC204305): 1 µg/mL (≈ 1.02 µM) | IC50 [1, 6]: > 200 µM

CC(=O)NNC(=O)N[C@H]1[C@@H]2C[C@@H](O[C@@H]3O[C@H](C)[C@@H](O)[C@H](N)[C@@H]3O)/C=C/C=C/C=C/C=C/C=C/C=C/C=C/[C@H](C)[C@@H](O)[C@@H](C)[C@H](C)OC(=O)C[C@H](O)C[C@H](O)CC[C@@H](O)[C@H](O)C[C@H](O)C[C@](O)(C[C@@H]1O)O2 [I-19]
MIC (C. albicans ATCC90028; [2]): 0.25 µg/mL (≈ 0.251 µM) | MIC (A. flavus ATCC204304; [3]): 1 µg/mL (≈ 1 µM) | MIC (A. fumigatus ATCC204305; [4]): 1 µg/mL (≈ 1 µM) | IC50 [1, 5]: > 200 µM

C[C@@H]1[C@H](O)[C@@H](C)/C=C/C=C/C=C/C=C/C=C/C=C/C=C/[C@H](O[C@@H]2O[C@H](C)[C@@H](O)[C@H](N)[C@@H]2O)C[C@@H]2O[C@](O)(C[C@@H](O)C[C@@H](O)[C@H](O)CC[C@@H](O)C[C@@H](O)CC(=O)O[C@H]1C)C[C@H](O)[C@H]2NC(=O)NNC(=O)NO [I-218]
MIC (C. albicans ATCC90028): 0.25 µg/mL (≈ 0.247 µM) | MIC (A. flavus ATCC204304): 0.5 µg/mL (≈ 0.494 µM) | MIC (A. fumigatus ATCC204305): 1 µg/mL (≈ 0.988 µM) | IC50 [1, 6]: > 200 µM

C[C@@H]1[C@H](O)[C@@H](C)/C=C/C=C/C=C/C=C/C=C/C=C/C=C/[C@H](O[C@@H]2O[C@H](C)[C@@H](O)[C@H](N)[C@@H]2O)C[C@@H]2O[C@](O)(C[C@@H](O)C[C@@H](O)[C@H](O)CC[C@@H](O)C[C@@H](O)CC(=O)O[C@H]1C)C[C@H](O)[C@H]2NC(=O)NNC(=O)c1cccnc1 [I-45]
MIC (C. albicans ATCC90028): 0.25 µg/mL (≈ 0.236 µM) | MIC (A. flavus ATCC204304): 0.5 µg/mL (≈ 0.472 µM) | MIC (A. fumigatus ATCC204305): 1 µg/mL (≈ 0.945 µM) | IC50 [1, 6]: > 200 µM

C[C@@H]1[C@H](O)[C@@H](C)/C=C/C=C/C=C/C=C/C=C/C=C/C=C/[C@H](O[C@@H]2O[C@H](C)[C@@H](O)[C@H](N)[C@@H]2O)C[C@@H]2O[C@](O)(C[C@@H](O)C[C@@H](O)[C@H](O)CC[C@@H](O)C[C@@H](O)CC(=O)O[C@H]1C)C[C@H](O)[C@H]2NC(=O)NNC(=O)c1ncccc1N [I-197]
IC50 [1, 6]: > 200 µM

CNC(=O)NNC(=O)N[C@H]1[C@@H]2C[C@@H](O[C@@H]3O[C@H](C)[C@@H](O)[C@H](N)[C@@H]3O)/C=C/C=C/C=C/C=C/C=C/C=C/C=C/[C@H](C)[C@@H](O)[C@@H](C)[C@H](C)OC(=O)C[C@H](O)C[C@H](O)CC[C@@H](O)[C@H](O)C[C@H](O)C[C@](O)(C[C@@H]1O)O2 [I-228]
IC50 [1, 6]: > 200 µM

C[C@@H]1[C@H](O)[C@@H](C)/C=C/C=C/C=C/C=C/C=C/C=C/C=C/[C@H](O[C@@H]2O[C@H](C)[C@@H](O)[C@H](N)[C@@H]2O)C[C@@H]2O[C@](O)(C[C@@H](O)C[C@@H](O)[C@H](O)CC[C@@H](O)C[C@@H](O)CC(=O)O[C@H]1C)C[C@H](O)[C@H]2NC(=O)NNc1ncccc1C(F)(F)F [I-124]
IC50 [1, 6]: > 200 µM

C[C@@H]1[C@H](O)[C@@H](C)/C=C/C=C/C=C/C=C/C=C/C=C/C=C/[C@H](O[C@@H]2O[C@H](C)[C@@H](O)[C@H](N)[C@@H]2O)C[C@@H]2O[C@](O)(C[C@@H](O)C[C@@H](O)[C@H](O)CC[C@@H](O)C[C@@H](O)CC(=O)O[C@H]1C)C[C@H](O)[C@H]2NC(=O)NNC(=O)C1(CO)CC1 [I-247]
IC50 [1, 6]: > 200 µM

C[C@@H]1[C@H](O)[C@@H](C)/C=C/C=C/C=C/C=C/C=C/C=C/C=C/[C@H](O[C@@H]2O[C@H](C)[C@@H](O)[C@H](N)[C@@H]2O)C[C@@H]2O[C@](O)(C[C@@H](O)C[C@@H](O)[C@H](O)CC[C@@H](O)C[C@@H](O)CC(=O)O[C@H]1C)C[C@H](O)[C@H]2NC(=O)NNC(=O)CCC(=O)O [I-261]
MIC (C. albicans ATCC90028): 0.5 µg/mL (≈ 0.475 µM) | MIC (A. flavus ATCC204304): 0.5 µg/mL (≈ 0.475 µM) | MIC (A. fumigatus ATCC204305): 1 µg/mL (≈ 0.949 µM) | IC50 [1, 6]: > 200 µM

C[C@@H]1[C@H](O)[C@@H](C)/C=C/C=C/C=C/C=C/C=C/C=C/C=C/[C@H](O[C@@H]2O[C@H](C)[C@@H](O)[C@H](N)[C@@H]2O)C[C@@H]2O[C@](O)(C[C@@H](O)C[C@@H](O)[C@H](O)CC[C@@H](O)C[C@@H](O)CC(=O)O[C@H]1C)C[C@H](O)[C@H]2NC(=O)NNC(=O)C1(C(N)=O)CC1 [I-256]
IC50 [1, 6]: > 200 µM

C[C@@H]1[C@H](O)[C@@H](C)/C=C/C=C/C=C/C=C/C=C/C=C/C=C/[C@H](O[C@@H]2O[C@H](C)[C@@H](O)[C@H](N)[C@@H]2O)C[C@@H]2O[C@](O)(C[C@@H](O)C[C@@H](O)[C@H](O)CC[C@@H](O)C[C@@H](O)CC(=O)O[C@H]1C)C[C@H](O)[C@H]2NC(=O)NNC(=O)Nc1cccnn1 [I-224]
IC50 [1, 6]: > 200 µM

C[C@@H]1[C@H](O)[C@@H](C)/C=C/C=C/C=C/C=C/C=C/C=C/C=C/[C@H](O[C@@H]2O[C@H](C)[C@@H](O)[C@H](N)[C@@H]2O)C[C@@H]2O[C@](O)(C[C@@H](O)C[C@@H](O)[C@H](O)CC[C@@H](O)C[C@@H](O)CC(=O)O[C@H]1C)C[C@H](O)[C@H]2NC(=O)NNC(=O)c1cccnc1N [I-198]
IC50 [1, 6]: > 200 µM

C[C@@H]1[C@H](O)[C@@H](C)/C=C/C=C/C=C/C=C/C=C/C=C/C=C/[C@H](O[C@@H]2O[C@H](C)[C@@H](O)[C@H](N)[C@@H]2O)C[C@@H]2O[C@](O)(C[C@@H](O)C[C@@H](O)[C@H](O)CC[C@@H](O)C[C@@H](O)CC(=O)O[C@H]1C)C[C@H](O)[C@H]2NC(=O)NNC(=O)c1ccc(N2CCOCC2)nc1 [I-194]
IC50 [1, 6]: > 200 µM

C[C@@H]1[C@H](O)[C@@H](C)/C=C/C=C/C=C/C=C/C=C/C=C/C=C/[C@H](O[C@@H]2O[C@H](C)[C@@H](O)[C@H](N)[C@@H]2O)C[C@@H]2O[C@](O)(C[C@@H](O)C[C@@H](O)[C@H](O)CC[C@@H](O)C[C@@H](O)CC(=O)O[C@H]1C)C[C@H](O)[C@H]2NC(=O)NNC(=O)C1(S(C)(=O)=O)CC1 [I-263]
IC50 ([1]; Erythrocyte, 1 h): > 200 µM

C[C@@H]1[C@H](O)[C@@H](C)/C=C/C=C/C=C/C=C/C=C/C=C/C=C/[C@H](O[C@@H]2O[C@H](C)[C@@H](O)[C@H](N)[C@@H]2O)C[C@@H]2O[C@](O)(C[C@@H](O)C[C@@H](O)[C@H](O)CC[C@@H](O)C[C@@H](O)CC(=O)O[C@H]1C)C[C@H](O)[C@H]2NC(=O)NNC(=O)[C@H](O)CO [I-223]
IC50 [1, 5]: > 200 µM

C[C@@H]1[C@H](O)[C@@H](C)/C=C/C=C/C=C/C=C/C=C/C=C/C=C/[C@H](O[C@@H]2O[C@H](C)[C@@H](O)[C@H](N)[C@@H]2O)C[C@@H]2O[C@](O)(C[C@@H](O)C[C@@H](O)[C@H](O)CC[C@@H](O)C[C@@H](O)CC(=O)O[C@H]1C)C[C@H](O)[C@H]2NC(=O)NNC(=S)Nc1ccccc1 [I-216]
IC50 [1, 6]: > 200 µM

C[C@@H]1[C@H](O)[C@@H](C)/C=C/C=C/C=C/C=C/C=C/C=C/C=C/[C@H](O[C@@H]2O[C@H](C)[C@@H](O)[C@H](N)[C@@H]2O)C[C@@H]2O[C@](O)(C[C@@H](O)C[C@@H](O)[C@H](O)CC[C@@H](O)C[C@@H](O)CC(=O)O[C@H]1C)C[C@H](O)[C@H]2NC(=O)NNC(=O)C1(O)CC1 [I-257]
IC50 [1, 6]: > 200 µM

C[C@@H]1[C@H](O)[C@@H](C)/C=C/C=C/C=C/C=C/C=C/C=C/C=C/[C@H](O[C@@H]2O[C@H](C)[C@@H](O)[C@H](N)[C@@H]2O)C[C@@H]2O[C@](O)(C[C@@H](O)C[C@@H](O)[C@H](O)CC[C@@H](O)C[C@@H](O)CC(=O)O[C@H]1C)C[C@H](O)[C@H]2NC(=O)NNS(=O)(=O)c1nnc[nH]1 [I-246]
IC50 ([1]; Erythrocyte, 1 h): > 200 µM
